These results are taken from patent US12264134B2 (Merck Sharp & Dohme LLC, priority 2018, dated 2025).

The target in assay [1] is T1, IDO1 (Homo sapiens, UniProt P14902). The experiment in a line: IDO1 Cellular Assay in HeLa Cells Stimulated with IFNγ. It is filed as cell-based. The conditions noted are these: read-out: HeLa Cell Potency, IC50.
The target of assay [2] is T1, IDO1. In words: IDO1 Human Whole blood Assay. It is filed as cell-based. Further details: Human whole blood was drawn in sodium heparin coated tubes from healthy internal donors; from tissue; host or cells: human whole blood from healthy donors, stimulated with LPS and IFNγ. The conditions noted are these: LPS and IFNγ stimulated, 18 h, read-out: Human Whole Blood Potency, IC50. An outline of the steps:
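Heparinized healthy-donor human whole blood was preincubated 15 min with compound, then stimulated with LPS and IFNγ (100 ng/mL final) for 18 h at 37 °C. Plasma kynurenine was quantified by LC/MS/MS against a D6-kynurenine internal standard, and IC50s came from 4-parameter sigmoidal fits.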

Structures are written as SMILES.

T1 sequence (P14902 whole entry): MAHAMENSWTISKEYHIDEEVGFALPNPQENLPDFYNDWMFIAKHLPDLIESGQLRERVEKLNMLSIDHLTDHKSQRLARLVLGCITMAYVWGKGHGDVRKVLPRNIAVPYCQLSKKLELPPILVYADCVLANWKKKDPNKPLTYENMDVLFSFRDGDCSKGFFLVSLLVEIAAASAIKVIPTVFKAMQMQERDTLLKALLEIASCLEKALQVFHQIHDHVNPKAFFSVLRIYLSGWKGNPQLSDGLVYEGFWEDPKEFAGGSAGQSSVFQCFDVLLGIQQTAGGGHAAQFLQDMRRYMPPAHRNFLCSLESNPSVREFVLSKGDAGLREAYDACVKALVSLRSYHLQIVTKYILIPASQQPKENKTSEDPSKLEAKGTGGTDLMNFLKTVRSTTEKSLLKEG

The IC50 is the concentration that gives 50% inhibition. For `Cc1cccc(N2CCN(C(=O)Cn3nc(C(=O)N4CCC(CCO)CC4)c4c3CCC4)CC2)c1C` [Example 160, 1-[4-(2,3-dimethylphenyl)piperazin-1-yl]-2-{3-[4-(2-hydroxyethyl)piperidine-1-carbonyl]-5,6-dihydrocyclopenta[c]pyrazol-1(4H)-yl}ethan-1-one], the IC50 at IDO1 [1] turned out to be 1.65 nM; at IDO1 [2], 209 nM.

Regarding `Cc1cccc(N2CCN(C(=O)Cn3nc(C(=O)N4CC[C@@H](O)[C@@H](F)C4)c4c3CC(F)C4)CC2)c1C` (single isomer, unassigned) [Example 419], the concentration for half-maximal inhibition (IC50) on IDO1 [1] turned out to be 10.8 nM; on IDO1 [2], 1150 nM.

In the case of `Cc1c(Cl)cccc1N1CCN(C(=O)Cn2nc(C(=O)N3CCC(O)CC3)c3c2CCC(F)C3)CC1` (stereo not shown) [Example 366, 1-(4-(3-chloro-2-methylphenyl)piperazin-1-yl)-2-(5-fluoro-3-(4-hydroxypiperidine-1-carbonyl)-4,5,6,7-tetrahydro-1H-indazol-1-yl)ethan-1-one], the IC50 at IDO1 [1] came out at 2.33 nM; on IDO1 [2], 141 nM.

`Cc1cccc(N2CCN(C(=O)Cn3nc(C(=O)N4CC[C@@H](O)[C@@H](F)C4)c4c3CC(F)C4)CC2)c1C` (single isomer, unassigned) [Example 418]: the figures for the IC50 on IDO1 [1] and on IDO1 [2] were 31.7 nM and 2470 nM, respectively.

With `Cc1cccc(N2CCN(C(=O)Cn3nc(C(=O)N4CCC(F)(CO)CC4)c4c3C[C@H]3C[C@@H]43)CC2)c1C` [Example 286, 1-[4-(2,3-dimethylphenyl)piperazin-1-yl]-2-{(3bR,4aR)-3-[4-fluoro-4-(hydroxymethyl)piperidine-1-carbonyl]-3b,4,4a,5-tetrahydro-1H-cyclopropa[3,4]cyclopenta[1,2-c]pyrazol-1-yl}ethan-1-one], the concentration for half-maximal inhibition (IC50) is 1.52 nM at IDO1 [1] and 44 nM at IDO1 [2].

In the case of `Cc1cccc(N2CCN(C(=O)Cn3nc(C(=O)N4CC[C@@H](O)C(F)(F)C4)c4c3CCC4)CC2)c1C` (single isomer, unassigned) [Example 202, 2-[3-[(4R or 4S)-3,3-difluoro-4-hydroxy-piperidine-1-carbonyl]-5,6-dihydro-4H-cyclopenta[c]pyrazol-1-yl]-1-[4-(2,3-dimethylphenyl)piperazin-1-yl]ethanone], the half-maximal inhibitory concentration (IC50) worked out at 5.91 nM at IDO1 [1] and 516 nM at IDO1 [2].

With `Cc1cccc(N2CCN(C(=O)Cn3nc(C(=O)N4CC[C@@H](O)[C@@H](F)C4)c4c3CCCC4)CC2)c1C` [Example 476, 1-(4-(2,3-dimethylphenyl)piperazin-1-yl)-2-(3-((3S,4R)-3-fluoro-4-hydroxypiperidine-1-carbonyl)-4,5,6,7-tetrahydro-1H-indazol-1-yl)ethanone], the IC50 was found to be 5.45 nM on IDO1 [1] and 164 nM on IDO1 [2].

For the compound `Cc1cccc(N2CCN(C(=O)Cn3nc(C(=O)N4CCC(O)CC4)c4c3C[C@H]3C[C@@H]43)C3(CC3)C2)c1C` [Example 357, 1-(7-(2,3-dimethylphenyl)-4,7-diazaspiro[2.5]octan-4-yl)-2-((3bR,4aR)-3-(4-hydroxypiperidine-1-carbonyl)-3b,4,4a,5-tetrahydro-1H-cyclopropa[3,4]cyclopenta[1,2-c]pyrazol-1-yl)ethanone], the values for the half-inhibitory concentration (IC50) on IDO1 [1] and at IDO1 [2] were 0.89 nM and 1870 nM, respectively.

As to `Cc1cccc(N2CCN(C(=O)Cn3nc(C(=O)N4CC[C@H](O)[C@H](F)C4)c4c3CC(C(F)F)C4)CC2)c1C` (mixture of isomers) [Example 17, 2-[rac-5-(difluoromethyl)-3-[(3R,4S)-3-fluoro-4-hydroxy-piperidine-1-carbonyl]-5,6-dihydro-4H-cyclopenta[c]pyrazol-1-yl]-1-[4-(2,3-dimethylphenyl)piperazin-1-yl]ethanone], the IC50 is 10.9 nM at IDO1 [1] and 625 nM on IDO1 [2].

For `Cc1cccc(N2CCN(C(=O)Cn3nc(C(=O)N4CCC(O)CC4)c4c3CC(C(F)F)C4)CC2)c1C` (racemic) [Example 16, 2-[rac-5-(difluoromethyl)-3-(4-hydroxypiperidine-1-carbonyl)-5,6-dihydro-4H-cyclopenta[c]pyrazol-1-yl]-1-[4-(2,3-dimethylphenyl)piperazin-1-yl]ethanone], the figures for the half-inhibitory concentration (IC50) on IDO1 [1] and on IDO1 [2] were 2.21 nM and 143 nM, respectively.

On to `Cc1cccc(N2CCN(C(=O)Cn3nc(C(=O)N4CC[C@@H](O)[C@H](C)C4)c4c3C[C@H]3C[C@@H]43)CC2)c1C` [Example 284, 1-[4-(2,3-dimethylphenyl)piperazin-1-yl]-2-{(3bR,4aR)-3-[(3R,4R)-4-hydroxy-3-methylpiperidine-1-carbonyl]-3b,4,4a,5-tetrahydro-1H-cyclopropa[3,4]cyclopenta[1,2-c]pyrazol-1-yl}ethan-1-one], for which the IC50 on IDO1 [1] worked out at 1.14 nM; on IDO1 [2] it was 403 nM.

As for `Cc1c(Cl)cccc1N1CCN(C(=O)Cn2nc(C(=O)N3CCC(O)CC3)c3c2CCC(F)(F)C3)CC1` [Example 379, 1-(4-(3-chloro-2-methylphenyl)piperazin-1-yl)-2-(5,5-difluoro-3-(4-hydroxypiperidine-1-carbonyl)-4,5,6,7-tetrahydro-1H-indazol-1-yl)ethan-1-one], the IC50 on IDO1 [1] was 3.25 nM; at IDO1 [2], 172 nM.

As to `Cc1cccc(N2CCN(C(=O)Cn3nc(C(=O)N4CC[C@H](O)[C@H](C)C4)c4c3CCC4)CC2)c1C` [Example 107, 1-[4-(2,3-dimethylphenyl)piperazin-1-yl]-2-{3-[(3R,4S)-4-hydroxy-3-methylpiperidine-1-carbonyl]-5,6-dihydrocyclopenta[c]pyrazol-1(4H)-yl}ethan-1-one], the half-inhibitory concentration (IC50) on IDO1 [1] worked out at 1.2 nM; on IDO1 [2], 154 nM.

As for `Cc1cccc(N2CCN(C(=O)Cn3nc(C(=O)N4CCC(O)C(F)C4)c4c3CCC4)C3(CC3)C2)c1C` (single isomer, unassigned) [Example 396, 1-(7-(2,3-dimethylphenyl)-4,7-diazaspiro[2.5]octan-4-yl)-2-(3-(3-fluoro-4-hydroxypiperidine-1-carbonyl)-5,6-dihydrocyclopenta[c]pyrazol-1(4H)-yl)ethanone], the concentration for half-maximal inhibition (IC50) amounted to 4.08 nM at IDO1 [1] and 625 nM at IDO1 [2].

Take `Cc1cccc(N2CCN(C(=O)Cn3nc(C(=O)N4CCC(OCCO)CC4)c4c3CCCC4)CC2)c1C` [Example 463, 1-(4-(2,3-dimethylphenyl)piperazin-1-yl)-2-(3-(4-(2-hydroxyethoxy)piperidine-1-carbonyl)-4,5,6,7-tetrahydro-1H-indazol-1-yl)ethanone]: the half-inhibitory concentration (IC50) on IDO1 [1] stood at 1.37 nM; on IDO1 [2], 37 nM.

Take `COC1CCN(C(=O)c2nn(CC(=O)N3CCN(c4cccc(C)c4C)CC3)c3c2CCC3)CC1` [Example 126, 1-[4-(2,3-dimethylphenyl)piperazin-1-yl]-2-[3-(4-methoxypiperidine-1-carbonyl)-5,6-dihydrocyclopenta[c]pyrazol-1(4H)-yl]ethan-1-one]: the concentration for half-maximal inhibition (IC50) at IDO1 [1] was 2.61 nM; at IDO1 [2], 300 nM.

`Cc1cccc(N2CCN(C(=O)Cn3nc(C(=O)N4CCC(O)C(F)C4)c4c3CCC4)C3(CC3)C2)c1C` (single isomer, unassigned) [Example 329, 1-[7-(2,3-dimethylphenyl)-4,7-diazaspiro[2.5]octan-4-yl]-2-[3-(3-fluoro-4-hydroxy-piperidine-1-carbonyl)-5,6-dihydro-4H-cyclopenta[c]pyrazol-1-yl]ethanone]: the values for the IC50 at IDO1 [1] and at IDO1 [2] were 7.2 nM and 904 nM, respectively.

Regarding `Cc1cccc(N2CCN(C(=O)Cn3nc(C(=O)N4CCC(O)C(F)C4)c4c3CCC4)C3(CC3)C2)c1C` (single isomer, unassigned) [Example 395, 1-(7-(2,3-dimethylphenyl)-4,7-diazaspiro[2.5]octan-4-yl)-2-(3-(3-fluoro-4-hydroxypiperidine-1-carbonyl)-5,6-dihydrocyclopenta[c]pyrazol-1(4H)-yl)ethanone], the IC50 stood at 6.86 nM at IDO1 [1] and 4160 nM at IDO1 [2].

As to `Cc1cccc(N2CCN(C(=O)Cn3nc(C(=O)N4CC[C@H](O)[C@H](F)C4)c4c3CC(C(F)F)C4)CC2)c1C` (single isomer, unassigned) [Example 11], the IC50 at IDO1 [1] stood at 7.6 nM; at IDO1 [2], 980 nM.

For the compound `Cc1c(F)ccc(N2CCN(C(=O)Cn3nc(C(=O)N4CCC(O)CC4(C)C)c4c3CCCC4)CC2)c1C` (stereo not shown) [Example 464, 1-(4-(4-fluoro-2,3-dimethylphenyl)piperazin-1-yl)-2-(3-(4-hydroxy-2,2-dimethyl-piperidine-1-carbonyl)-4,5,6,7-tetrahydro-1H-indazol-1-yl)ethanone], the figures for the IC50 on IDO1 [1] and on IDO1 [2] were 1.38 nM and 135 nM, respectively.

As to `Cc1cccc(N2CCN(C(=O)Cn3nc(C(=O)N4CC[C@H](O)[C@H](F)C4)c4c3CCCC4)CC2)c1C` [Example 475, 1-(4-(2,3-dimethylphenyl)piperazin-1-yl)-2-(3-((3R,4S)-3-fluoro-4-hydroxypiperidine-1-carbonyl)-4,5,6,7-tetrahydro-1H-indazol-1-yl)ethanone], the concentration for half-maximal inhibition (IC50) is 4.26 nM on IDO1 [1] and 52 nM on IDO1 [2].

For the compound `Cc1cccc(N2CCN(C(=O)Cn3nc(C(=O)N4CCC(N5CCNC5=O)CC4)c4c3CCC4)CC2)c1C` [Example 130, 1-[1-(1-{2-[4-(2,3-dimethylphenyl)piperazin-1-yl]-2-oxoethyl}-1,4,5,6-tetrahydrocyclopenta[c]pyrazole-3-carbonyl)piperidin-4-yl]imidazolidin-2-one], the IC50 at IDO1 [1] is 3.54 nM; at IDO1 [2], 175 nM.

For the compound `Cc1cccc(N2CCN(C(=O)Cn3nc(C(=O)N4CCC(OCCO)CC4)c4c3C[C@H]3C[C@@H]43)[C@H]3CCC[C@@H]32)c1C` (racemic) [Example 326, 1-[rac-(4aS,7aS or 4aR,7aR)-1-(2,3-dimethylphenyl)-3,4a,5,6,7,7a-hexahydro-2H-cyclopenta[b]pyrazin-4-yl]-2-[(2R,4R)-9-[4-(2-hydroxyethoxy)piperidine-1-carbonyl]-7,8-diazatricyclo[4.3.0.02,4]nona-1(6),8-dien-7-yl]ethanone], the IC50 on IDO1 [1] was 5.03 nM; on IDO1 [2], 813 nM.
